# From PubChem BioAssay (NCI)
# Where “and” joins values, the source holds several entries; their conditions need not be identical. Equal entries are not always repeated.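 Method: 48-hour compound exposure of cells in 96-well plates, five concentrations, linear interpolation of endpoints. Abbreviation: GI50, concentration required for 50% inhibition of growth. TGI marks complete inhibition of growth.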
# Legend:
# Test in all cases: NCI tumour cell line growth inhibition, 48 h
# COLO 205 colon = tested on: COLO 205 colon
# DU-145 prostate = tested on: DU-145 prostate
# NCI-H226 lung = tested on: NCI-H226 lung
# NCI-H23 lung = tested on: NCI-H23 lung
# OVCAR-4 ovarian = tested on: OVCAR-4 ovarian
# OVCAR-5 ovarian = tested on: OVCAR-5 ovarian
# PC-3 prostate = tested on: PC-3 prostate
# SF-268 CNS = tested on: SF-268 CNS
# SF-295 CNS = tested on: SF-295 CNS
# SNB-19 CNS = tested on: SNB-19 CNS
SMILES,GI50 (COLO 205 colon),TGI (COLO 205 colon),GI50 (DU-145 prostate),TGI (DU-145 prostate),GI50 (NCI-H226 lung) [nM],TGI (NCI-H226 lung) [µM],GI50 (NCI-H23 lung) [nM],TGI (NCI-H23 lung) [µM],GI50 (OVCAR-4 ovarian) [nM],TGI (OVCAR-4 ovarian) [µM],GI50 (OVCAR-5 ovarian) [nM],TGI (OVCAR-5 ovarian) [µM],GI50 (PC-3 prostate),TGI (PC-3 prostate) [µM],GI50 (SF-268 CNS) [nM],TGI (SF-268 CNS) [µM],GI50 (SF-295 CNS),TGI (SF-295 CNS) [µM],GI50 (SNB-19 CNS) [nM],TGI (SNB-19 CNS)
Cn1cc(-c2cnc3ccc(NC(=O)Nc4ccc(F)c(Br)c4)cc3n2)cn1,1590 nM,3.24 µM,1670 nM,3960 nM,1520,3.64,1750,3.91,1530,5.55,1940,4.53,1440 nM,3.62,2380,7,1890 nM,3.73,2660,10.4 µM
O=C(O)Cn1ccc(=O)c2ccc([N+](=O)[O-])cc21,,> 100 µM,,> 100000 nM,,> 100,,> 100,,,,> 100,,> 100,,> 100,,> 100,,> 100 µM
CN(C(=O)C12C3C4C1C1C2C3C41C(=O)C(C)(C)C)C(C)(C)C (stereo not drawn),,> 100 µM,,,,,,> 100,,> 100,,> 100,,,,> 100,,> 100,,> 100 µM
N#CC(C(=N/O)/C(=N/O)C(C#N)c1ccc(Cl)cc1)c1ccc(Cl)cc1 (stereo not drawn),,> 100 µM,,,,> 100,,> 100,,> 100,,> 100,,,,> 100,,> 100,,> 100 µM
CCCCNC1=C(C(=O)OCC)C(=O)CO1,,> 100 µM,,,,> 100,,> 100,,> 100,,> 100,,,,> 100,,> 100,,> 100 µM
CC1(Cl)C(=O)NC(=O)N(C2CC(N=[N+]=[N-])C(CO)O2)C1N=[N+]=[N-] (stereo not drawn),,> 100 µM,,,,,,> 100,,> 100,,> 100,,,,> 100,,> 100,,> 100 µM
COC(=O)C1=C(C(=O)OC)C2C=CC1C1C(Cl)=C(Cl)C21 (stereo not drawn),,> 100 µM,,,,,,> 100,,> 100,,> 100,,,,> 100,,> 100,,
COc1ccc2[nH]c3c(C)c4c(c(C)c3c2c1)CN(C)CC4,,31.2 µM,,,,30.8,,,,34.8,,54.2,,,,48.3,,32.9,,48.5 µM
COC(=O)CC(=O)C[P+](c1ccccc1)(c1ccccc1)c1ccccc1,,> 218 µM,,,,> 218,,> 218,,,,,,,,> 218,,> 218,,> 218 µM
CCCCCCCCCC[C@@H](O)[C@@H]1CC[C@H]([C@H]2CC[C@@H]([C@@H](O)CCCCCCCCCC[C@H]3CC(CC(C)=O)C(=O)O3)O2)O1 (stereo partly drawn),,28.8 µM,,,,20.2,,16.4,,21.7,,74.3,,,,31.4,,,,31.3 µM
CC12CC[C@@H](C(C)(C)O)C1[C@@H](O)CC1(C)C2CCC2[C@@]3(C)CC[C@H](O)C(C)(C)C3C(O)C[C@]21C (stereo partly drawn),,66.7 µM,,,,,,39.2,,32.6,,31.2,,,,39.7,,37,,46.5 µM
CCOc1ccc2c(c1)[n+]([O-])c(S(=O)(=O)c1ccc(C)cc1)c(N)[n+]2[O-],,> 100 µM,,,,> 100,,> 100,,> 100,,> 100,,,,> 100,,> 100,,> 100 µM
COc1cc2c3c(n(C)c(=O)c2cc1OC)-c1cc2c(cc1/C3=C\CCCN1C(=O)c3ccccc3C1=O)OCO2,> 40000 nM,> 40 µM,6730 nM,> 40000 nM,,,> 40000,> 40,> 40000,> 40,> 40000,> 40,4790 nM,24.7,14200,> 40,3610 nM,> 40,> 40000,> 40 µM
Cc1ccc(C)c(NC(=O)CC/C(=N\NC(=O)C(=O)NN)C(C)C(=O)c2ccc(O)cc2)c1 (stereo not drawn),,> 100 µM,,,,> 100,,> 100,,> 100,,> 100,,,,> 100,,> 100,,> 100 µM
COC(=O)CC(C(C(=O)OC)C(=O)OC)N1C(=O)OCC1c1ccccc1 (stereo not drawn),,> 100 µM,,,,> 100,,> 100,,> 100,,> 100,,,,> 100,,> 100,,> 100 µM
CC1=C(C(=O)Nc2ccc([N+](=O)[O-])cc2)C(c2ccc(N(C)C)cc2)C(C(=O)Nc2ccc([N+](=O)[O-])cc2)=C(C)N1,,33.7 µM,,,,42.3,,52.8,,89.5,,67,,,,96.1,,74.6,,> 100 µM
CC(=O)Nc1ccccc1Sc1ccccc1,,> 100 µM,,,,> 100,,> 100,,> 100,,> 100,,,,> 100,,> 100,,> 100 µM
N#C/C(=C/c1ccsc1)C(=O)c1ccccc1,,> 100 µM,,,,> 100,,> 100,,> 100,,> 100,,,,> 100,,> 100,,> 100 µM
Cc1ccc(-c2c3c([nH]c(=O)c2C#N)-c2cc(F)ccc2OC3)cc1,> 100000 nM,> 100 µM,> 100000 nM,> 100000 nM,,,,,> 100000,> 100,> 100000,> 100,88700 nM,> 100,,,23900 nM,76.6,70400,> 100 µM
COc1ccccc1C1C(C(=O)Nc2ccccc2)=C(C)NC(C)=C1C(=O)Nc1ccccc1,,65.2 µM,,,,> 100,,> 100,,> 100,,> 100,,,,> 100,,> 100,,> 100 µM
OCCC1(O)CCC(O)CC1 (stereo not drawn),,> 100 µM,,,,> 100,,> 100,,> 100,,> 100,,,,> 100,,> 100,,> 100 µM

SMILES,GI50 (COLO 205 colon),TGI (COLO 205 colon),GI50 (DU-145 prostate),TGI (DU-145 prostate),GI50 (NCI-H226 lung) [nM],TGI (NCI-H226 lung) [µM],GI50 (NCI-H23 lung) [nM],TGI (NCI-H23 lung) [µM],GI50 (OVCAR-4 ovarian) [nM],TGI (OVCAR-4 ovarian) [µM],GI50 (OVCAR-5 ovarian) [nM],TGI (OVCAR-5 ovarian) [µM],GI50 (PC-3 prostate),TGI (PC-3 prostate) [µM],GI50 (SF-268 CNS) [nM],TGI (SF-268 CNS) [µM],GI50 (SF-295 CNS),TGI (SF-295 CNS) [µM],GI50 (SNB-19 CNS) [nM],TGI (SNB-19 CNS)
Cc1ccc(S(=O)(=O)C(CC(=O)N2CCCC2)C(=O)c2ccccc2)cc1 (stereo not drawn),,> 100 µM,,,,,,> 100,,> 100,,> 100,,,,> 100,,> 100,,> 100 µM
O=c1[nH]n2c(=O)cc[nH]c2c1-c1nnns1,,> 100 µM,,,,> 100,,> 100,,> 100,,> 100,,,,> 100,,> 100,,> 100 µM
Cc1cc2c(cc1C)[n+](=O)c(C(=O)CC(=O)C(=O)Nc1c(C(C)C)cccc1C(C)C)c(C)n2[O-],,> 100 µM,,,,> 100,,> 100,,> 100,,> 100,,,,> 100,,> 100,,> 100 µM
COc1ccc(CNc2cc(OC)c(OC)c(OC)c2)cc1,,9.34 µM,,,,> 62.1,,> 55.9,,85.1,,> 83.7,,,,28.6,,> 55.1,,> 100 µM
CC1(C)CC(/C=C2/OC(=O)c3ccccc32)=C(C#N)C(=O)O1,,> 100 µM,,,,> 100,,> 100,,> 100,,> 100,,,,> 100,,> 100,,> 100 µM
COc1cccc(-c2cc(=O)c3cc(N(C)C)ccc3[nH]2)c1,28.3 nM and 12.5 nM,0.0875 µM and 0.0317 µM,34 nM and 7.3 nM,302 nM and 369 nM and 800 nM,,,,,,> 100,,> 100,27.5 nM and 8.06 nM,> 100,,,16.9 nM and 29.6 nM and 4.85 nM,,,0.825 µM and 0.843 µM
CCCCN(CCCC)C(=O)C(=O)C(C#N)c1ccc(C)cc1 (stereo not drawn),,,,,,> 100,,> 100,,> 100,,> 100,,,,> 100,,> 100,,> 100 µM
Cc1nc2c(nc1Cl)nc(Oc1ccc(Cl)cc1)c1ccccc12,,> 100 µM,,,,79.9,,85,,> 100,,> 100,,,,> 100,,> 100,,> 100 µM
OCc1ccc2[n+](c1)CCC1c3ccccc3NC21 (stereo not drawn),,> 300 µM,,,,> 300,,> 300,,,,,,,,> 300,,> 300,,> 300 µM
COC(=O)CCCCN=Cc1c(O)c(O)c(C(C)C)c2cc(C)c(-c3c(C)cc4c(C(C)C)c(O)c(O)c(C=NCCCCC(=O)OC)c4c3O)c(O)c12,850 nM,2.44 µM,1390 nM,> 32500 nM,1300,8.38,1070,27,886,> 32.5,,,787 nM,> 32.5,1340,> 32.5,830 nM,7.92,713,> 32.5 µM
O=C1/C(=C/c2ccc(Cl)cc2Cl)N=C(c2ccccc2)N1Cc1ccco1,,,21100 nM,51000 nM,23900,67.6,26200,81.6,21200,50,34500,> 100,30800 nM,93.9,20200,49.5,22200 nM,45.9,,
COc1ccc2c(c1)c(-c1nc(-c3cn(C)c4ncccc34)cs1)cn2CCCN1CCCCC1,,,1620 nM,2980 nM,,,1810,3.49,1870,4.64,1640,3.25,1760 nM,3.27,1600,3.21,1710 nM,3.18,1900,3.52 µM
CN1CCN(Cc2ccc(NC(=O)c3cncc(C#Cc4cnc(N)c5ccc(C#N)cc45)c3)cc2C(F)(F)F)CC1,17.8 nM,0.722 µM,33.2 nM,1470 nM,69.8,0.864,172,1.27,,,211,0.986,357 nM,1.37,49.7,0.859,214 nM,9.95,,
COC(=O)C(/C(=N/NC(N)=O)C(=O)Nc1ccc(C)cc1)c1nc2ccc([N+](=O)[O-])cc2[nH]c1=O (stereo not drawn),,,,,,> 100,,,,> 100,,> 100,,> 100,,> 100,,> 100,,
O=C(CI)NC1Oc2ccccc2-c2oc(=O)c(-c3ccccc3)cc21 (stereo not drawn),1810 nM,3.92 µM,1570 nM,2980 nM,3320,29,,,,,,,,,1680,3.36,1770 nM,3.37,2640,7.54 µM
CCCCCCCCCCCCCC(=O)OC1CC(=O)OC1CO (stereo not drawn),,> 100 µM,,,,,,,,> 100,,> 100,,,,> 100,,45.5,,> 100 µM
COc1ccc2ccc3c(c2c1)CN1CCc2cc(OC)c(OC)cc2C1C3 (stereo not drawn),,> 100 µM,,,,> 100,,> 100,,> 100,,> 100,,,,,,> 100,,> 100 µM
Clc1ccc(C2N3CCCCC3[C@@H]3c4[nH]c5ccccc5c4CCN23)cc1 (stereo partly drawn),,,,,,,,> 100,,> 100,,> 100,,,,> 100,,> 100,,> 100 µM
N#CSCC1CC(O)(c2ccccc2)C(c2ccccc2)C(c2ccc(Cl)cc2)O1 (stereo not drawn),1460 nM,2.84 µM,2020 nM,4670 nM,2270,4.62,1570,3.03,1220,2.53,2130,3.86,1850 nM,4.98,1670,4.74,1750 nM,4.22,,
COc1cc(/C=C/c2cc(/C=C/c3ccc(O)c(OC)c3)n(-c3ccccc3)n2)ccc1O,1770 nM,3.31 µM,399 nM,1400 nM,382,1.83,197,2,536,4.95,1270,4.51,332 nM,12.7,,,,,,
